Data on 1 compound can be found in US11058695B2, “Inhibitor of carbapenem-hydrolyzing class D beta-lactamases” (MYONGJI UNIVERSITY INDUSTRY AND ACADEMIA COOPERATION …, priority 2019, dated 2021).

Like-named read-outs stand apart in the source and are kept apart here.

For one experiment, the target named is OXA-143 (Acinetobacter baumannii, UniProt D0UHC8). Briefly: CHDL enzyme inhibition assay with nitrocefin. In kind it is biochemical. The following applies: OXA-143 96 pM, 100 μM nitrocefin, 5 minute pre-incubation; read-out: IC50 against OXA-143. The procedure: (§1) The screened 7 compounds were dissolved in 100% DMSO at 10 mM. More diluted stocks were prepared as necessary. OXA-48 activity was determined by monitoring the change of absorbance at 482 nm using the characteristic molecular extinction coefficient (Δε482=15,900 M^−1 cm^−1) of nitrocefin (Oxoid, Hampshire, UK) by a Shimazu UV-1650PC spectrophotometer. Up to 5% DMSO, no influence on the enzyme activity of OXA-48 was observed. The assays were conducted in 10 mM MES (pH 6.8) containing OXA-48 (103 pM), 50 mM NaHCO3, and 20 μg/mL bovine serum albumin. After 5 min of pre-incubation of the purified OXA-48 and each inhibitor at 30° C., the enzymatic reaction was started by adding nitrocefin (100 μM). Residual velocities were determined after 5 minutes. The first 120 s of each reaction was used to measure initial rates. Data were evaluated using Microsoft Excel. Concentration-dependent inhibition of OXA-48 was measured using different concentrations of seven compounds resulting from two-fold dilution series. Reaction progress at every concentration of seven compounds was measured in triplicates. IC50 values were calculated using 4-parameter log fits using XL Fit curve fitting software (www.idbs.com) for Excel using the following equation:
(§2) [formula] where y is the remaining enzyme activity (in %) and x is the corresponding concentration. The fitted IC50 parameter is defined as the concentration giving a response half way between the fitted top (B) and bottom (A) of the curve.
(§3) To investigate the inhibitory effects of the novel inhibitor (PLPBA) against eight CHDLs belonging to six clinically-important CHDL subgroups(member of OXA-23 subgroup: OXA-23; member of OXA-24/40 subgroup: OXA-24/40; member of OXA-48 subgroup: OXA-48; members of OXA-51 subgroup: OXA-51 and OXA-109; member of OXA-58 subgroup: OXA-97; member of OXA-143 subgroup: OXA-143) and five CHDLs belonging to four emerging CHDL subgroups (member of OXA-211 subgroup: OXA-211; members of OXA-229 subgroup: OXA-229 and OXA-418; member of OXA-210 subgroup: OXA-210; and member of OXA-240 subgroup: OXA-240), the IC50 values for them were determined (Table 3). PLPBA was dissolved in 100% DMSO at 10 mM. More diluted stocks were prepared as necessary. Activities of CHDLs were determined by monitoring the change of absorbance at 482 nm. Up to 5% DMSO, no influence on the enzyme activities of CHDLs was observed. Each enzyme (OXA-23, 418 pM; OXA-24/40, 134 pM; OXA-48, 103 pM; OXA-51, 184 nM; OXA-97, 178 pM; OXA-109, 168 nM; OXA-143, 96 pM; OXA-210, 179 pM; OXA-211, 701 pM; OXA-229, 142 pM; OXA-240, 383 pM; OXA-418, 158 pM) was mixed with 100 μM nitrocefin after a 5 minute pre-incubation with PLPBA. The first 120 s of each reaction was used to measure initial rates. Data were evaluated using Microsoft Excel. Reaction progress at every concentration of PLPBA was measured in triplicates.

The target of a further experiment is OXA-109 (Acinetobacter baumannii, UniProt A8JZR7). Briefly: CHDL enzyme inhibition assay with nitrocefin. In kind it is biochemical. The following applies: OXA-109 168 nM, 100 μM nitrocefin, 5 minute pre-incubation; read-out: IC50 against OXA-109. The procedure:
as §1, §2, §3

The next experiment addresses OXA-51 (Acinetobacter baumannii, UniProt Q5QT35). Briefly: CHDL enzyme inhibition assay with nitrocefin. The following applies: OXA-51 184 nM, 100 μM nitrocefin, 5 minute pre-incubation; read-out: IC50 against OXA-51. It is filed as biochemical. The procedure:
as §1, §2, §3

Another experiment deals with OXA-210 (Pseudomonas aeruginosa, UniProt F6ME16). Put plainly: CHDL enzyme inhibition assay with nitrocefin. It is filed as biochemical. The method, then:
as §1, §2, §3

The target of another experiment is OXA-23 (Acinetobacter baumannii, UniProt Q9L4P2). Briefly: CHDL enzyme inhibition assay with nitrocefin. In kind it is biochemical. The following applies: OXA-23 418 pM, 100 μM nitrocefin, 5 minute pre-incubation; read-out: IC50 against OXA-23. The method, then:
as §1, §2, §3

The target of the next experiment is OXA-97 (Acinetobacter baumannii, UniProt A5Y470). Briefly: CHDL enzyme inhibition assay with nitrocefin. It is filed as biochemical. The following applies: OXA-97 178 pM, 100 μM nitrocefin, 5 minute pre-incubation; read-out: IC50 against OXA-97. The procedure:
as §1, §2, §3

Another experiment concerns the target OXA-211 (Acinetobacter johnsonii, UniProt G9JKV7). Briefly: CHDL enzyme inhibition assay with nitrocefin. The following applies: OXA-211 701 pM, 100 μM nitrocefin, 5 minute pre-incubation; read-out: IC50 against OXA-211. It is filed as biochemical. The procedure: as §1, §2, §3
The next experiment addresses OXA-229 (Acinetobacter bereziniae, UniProt I6S7G0). Put plainly: CHDL enzyme inhibition assay with nitrocefin. It is filed as biochemical. The following applies: OXA-229 142 pM, 100 μM nitrocefin, 5 minute pre-incubation; read-out: IC50 against OXA-229. The procedure:
as §1, §2, §3

Another experiment has as its target OXA-24/40 (Acinetobacter baumannii, UniProt Q8RLA6). Put plainly: CHDL enzyme inhibition assay with nitrocefin. It is filed as biochemical. The procedure:
as §1, §2, §3

The target in the next experiment is OXA-240 (Pseudomonas aeruginosa, UniProt I6VVS5). Put plainly: CHDL enzyme inhibition assay with nitrocefin. It is filed as biochemical, P. aeruginosa. The following applies: OXA-240 383 pM, 100 μM nitrocefin, 5 minute pre-incubation; read-out: IC50 against OXA-240. The procedure: as §1
Chain of OXA-240 (I6VVS5 21-266 limits assumed): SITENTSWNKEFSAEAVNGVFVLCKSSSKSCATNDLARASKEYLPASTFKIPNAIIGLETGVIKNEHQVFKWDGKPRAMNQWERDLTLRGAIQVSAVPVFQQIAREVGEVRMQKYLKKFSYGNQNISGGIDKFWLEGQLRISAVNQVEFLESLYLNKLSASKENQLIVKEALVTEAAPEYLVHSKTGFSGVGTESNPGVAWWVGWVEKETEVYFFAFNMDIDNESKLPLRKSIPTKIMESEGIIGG
(§4) [formula] where y is the remaining enzyme activity (in %) and x is the corresponding concentration. […]

A further experiment concerns the target OXA-48 (Klebsiella pneumoniae, UniProt Q6XEC0). Briefly: OXA-48 enzyme inhibition assay with nitrocefin. In kind it is biochemical. The following applies: OXA-48 103 pM. The method, then:
as §1, §4

Chain of OXA-48 (Q6XEC0 24-265 limits assumed, looked up): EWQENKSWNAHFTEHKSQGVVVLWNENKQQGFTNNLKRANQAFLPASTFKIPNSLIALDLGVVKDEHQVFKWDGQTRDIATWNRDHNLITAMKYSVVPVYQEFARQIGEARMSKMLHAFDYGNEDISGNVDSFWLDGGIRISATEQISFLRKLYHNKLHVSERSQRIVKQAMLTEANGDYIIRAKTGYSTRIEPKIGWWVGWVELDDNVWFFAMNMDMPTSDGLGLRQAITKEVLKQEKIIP
Chain of OXA-51 (Q5QT35 entry or part of it): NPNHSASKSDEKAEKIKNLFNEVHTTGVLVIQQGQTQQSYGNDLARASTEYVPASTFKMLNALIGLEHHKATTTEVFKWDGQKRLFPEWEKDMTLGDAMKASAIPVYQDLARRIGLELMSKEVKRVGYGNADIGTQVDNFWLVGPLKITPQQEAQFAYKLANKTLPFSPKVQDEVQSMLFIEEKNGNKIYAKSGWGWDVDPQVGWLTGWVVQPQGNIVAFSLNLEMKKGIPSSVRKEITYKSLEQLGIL
Chain of OXA-211 (G9JKV7 entry or part of it): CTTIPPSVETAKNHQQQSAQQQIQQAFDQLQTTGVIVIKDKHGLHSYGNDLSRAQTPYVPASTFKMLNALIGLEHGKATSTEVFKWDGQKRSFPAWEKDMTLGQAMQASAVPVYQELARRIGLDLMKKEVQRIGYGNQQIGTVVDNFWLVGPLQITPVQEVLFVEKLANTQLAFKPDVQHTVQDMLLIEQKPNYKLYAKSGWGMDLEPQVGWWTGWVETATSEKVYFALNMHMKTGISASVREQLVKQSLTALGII
Chain of OXA-229 (I6S7G0 entry or part of it): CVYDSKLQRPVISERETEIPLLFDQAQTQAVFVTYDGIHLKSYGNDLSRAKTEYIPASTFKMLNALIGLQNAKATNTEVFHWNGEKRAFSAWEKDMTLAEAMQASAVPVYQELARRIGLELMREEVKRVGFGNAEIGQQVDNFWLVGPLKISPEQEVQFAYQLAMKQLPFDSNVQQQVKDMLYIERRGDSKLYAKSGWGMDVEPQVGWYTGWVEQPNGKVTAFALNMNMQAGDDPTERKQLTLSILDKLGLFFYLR
Chain of OXA-109 (A8JZR7 entry or part of it): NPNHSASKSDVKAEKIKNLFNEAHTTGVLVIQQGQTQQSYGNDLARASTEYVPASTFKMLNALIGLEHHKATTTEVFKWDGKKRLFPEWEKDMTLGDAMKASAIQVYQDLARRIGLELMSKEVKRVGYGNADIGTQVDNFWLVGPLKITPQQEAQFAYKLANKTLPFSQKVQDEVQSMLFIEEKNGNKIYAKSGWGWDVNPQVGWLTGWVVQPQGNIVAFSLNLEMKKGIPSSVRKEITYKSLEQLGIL
Chain of OXA-24/40 (Q8RLA6 entry or part of it): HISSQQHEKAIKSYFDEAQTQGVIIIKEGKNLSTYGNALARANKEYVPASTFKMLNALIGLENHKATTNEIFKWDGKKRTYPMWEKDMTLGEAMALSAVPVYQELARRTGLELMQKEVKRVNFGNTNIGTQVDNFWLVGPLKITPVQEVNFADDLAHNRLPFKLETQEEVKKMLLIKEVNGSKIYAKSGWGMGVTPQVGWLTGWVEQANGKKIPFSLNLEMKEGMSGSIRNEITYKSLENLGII
Chain of OXA-97 (A5Y470 entry or part of it): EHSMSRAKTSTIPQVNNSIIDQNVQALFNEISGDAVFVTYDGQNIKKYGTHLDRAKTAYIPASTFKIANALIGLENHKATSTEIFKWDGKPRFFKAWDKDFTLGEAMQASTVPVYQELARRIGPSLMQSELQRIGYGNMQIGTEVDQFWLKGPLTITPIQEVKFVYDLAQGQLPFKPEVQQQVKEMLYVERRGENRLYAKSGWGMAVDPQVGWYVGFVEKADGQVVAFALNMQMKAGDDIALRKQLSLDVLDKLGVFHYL
Chain of OXA-143 (D0UHC8 entry or part of it): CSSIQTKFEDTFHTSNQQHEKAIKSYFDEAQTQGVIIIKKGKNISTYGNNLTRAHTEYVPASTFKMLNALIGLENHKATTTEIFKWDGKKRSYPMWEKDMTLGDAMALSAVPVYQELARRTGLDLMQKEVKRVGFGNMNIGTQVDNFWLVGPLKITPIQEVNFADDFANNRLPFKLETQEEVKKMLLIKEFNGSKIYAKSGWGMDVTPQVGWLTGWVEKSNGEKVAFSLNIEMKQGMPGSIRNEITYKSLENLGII
Chain of OXA-210 (F6ME16 entry or part of it): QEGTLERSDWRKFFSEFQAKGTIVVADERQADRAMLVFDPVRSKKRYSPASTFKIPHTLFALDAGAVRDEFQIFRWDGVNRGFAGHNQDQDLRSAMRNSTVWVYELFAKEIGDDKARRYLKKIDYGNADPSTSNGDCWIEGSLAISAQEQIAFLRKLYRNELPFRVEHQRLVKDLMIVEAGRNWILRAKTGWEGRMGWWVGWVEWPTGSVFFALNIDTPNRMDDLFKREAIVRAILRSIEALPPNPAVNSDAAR
Chain of OXA-23 (Q9L4P2 31-273 limits assumed): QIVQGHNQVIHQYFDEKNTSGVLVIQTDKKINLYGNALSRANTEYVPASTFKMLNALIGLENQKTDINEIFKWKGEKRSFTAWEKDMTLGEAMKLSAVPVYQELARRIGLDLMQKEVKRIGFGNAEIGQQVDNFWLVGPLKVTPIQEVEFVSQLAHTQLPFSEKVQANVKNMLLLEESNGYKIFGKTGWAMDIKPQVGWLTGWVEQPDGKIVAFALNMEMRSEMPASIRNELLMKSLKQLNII

One may read the IC50 as the concentration that gives 50% inhibition. For `OB(O)c1cccc(OCCc2ccccc2)c1` [Compound 1, [3-(2-Phenylethoxy)phenyl]boronic Acid], the IC50 at OXA-143 was 91.79 ± 0.01 µM; on OXA-109, 864.59 ± 0.02 µM; on OXA-51, 594.73 ± 0.01 µM; on OXA-210, 218.79 ± 0.02 µM; at OXA-23, 275.54 ± 0.02 µM; on OXA-97, 189.02 ± 0.01 µM. For the same compound, the IC50 stood at 238.51 ± 0.01 µM on OXA-211; 171.93 ± 0.01 µM on OXA-229; 384.73 ± 0.02 µM on OXA-24/40; 218.59 ± 0.03 µM on OXA-240; 155 µM at OXA-48 (nitrocefin 100 μM, 5 min pre-incubation at 30° C., 10 mM MES pH 6.8, read-out: IC50 values on OXA-48 of the screened compounds); 154.84 ± 0.02 µM on OXA-48 (Table 3, 100 μM nitrocefin, 5 minute pre-incubation, read-out: IC50 against OXA-48).
